Results on twelve compounds are retold here after patent US4123532A, “Method for treatment of asthma” (E. R. Squibb & Sons, Inc., priority 1977, dated 1978).

The subject of the assay is reaginic antibody-induced passive cutaneous anaphylaxis (PCA) reaction. Nature of the assay: Passive Cutaneous Anaphylaxis (PCA) Test in rats (anti-asthma activity). The assay is classed as in vivo, rat. To be noted: for ED50: Rattus norvegicus, read-out: ID50 (the source's name); for anti-asthma activity: rat PCA testing, result in words. The source says:
The skin of rats is first sensitized by the intradermal injection of reaginic (allergic) antibody. Twenty-four hours later, the animals receive a challenge injection of antigen together with Evan's blue dye given intravenously. The antigen, thus injected directly into the circulation, encounters the antibody in the skin and an "allergic reaction" occurs which is identified by the formation of intracutaneous edema. The edema is marked by the presence of the Evan's blue dye in the circulation.
The anti-asthmatic activity of these compounds is determined by the reaginic antibody-induced passive cutaneous anaphylaxis (PCA) reaction in rats.
In this test, 0.05 ml of appropriately diluted whole rat serum containing IgE antibody is injected intradermally into the skin of a rat. The next day, the animals are dosed with the test compound ten minutes prior to the i.v. challenge injection of antigen and Evan's blue dye. Thirty minutes later, the animals are sacrificed, the skin reflected and the reaction quantitated by measuring the dye-marked edema and scoring the color intensity of the reaction.

[1] abbreviates: IP, 75 mpk, rats dosed ten min. prior to challenge.
Setting [2] is: IP, rats dosed ten min. prior to challenge.

Structures are written as SMILES. Read-outs that look alike come from different tables or passages of the source.

As to `CCOC(=O)c1cc2c3cc(Cl)ccc3[nH]c(=O)n2n1` [9-Chloro-5,6-dihydro-5-oxopyrazolo[1,5-c]quinazoline-2-carboxylic acid, ethyl ester], the anti-asthma activity result was “has anti-asthma activity”. Further, the Maximum % inhibition under setting [1] is 93%. For the same compound, the ED50 under setting [2] was found to be 9 mg/kg.
As for `CCCCOC(=O)c1cc2c3ccccc3[nH]c(=O)n2n1` [5,6-Dihydro-5-oxopyrazolo[1,5-c]-quinazoline-2-carboxylic acid, n-butyl ester], the anti-asthma activity entry is on record as “has anti-asthma activity”. For the setting “IP, (150 mpk) (10 mg/kg) both printed, rats dosed ten min. prior to challenge”, the Maximum % inhibition is 78%. For the same compound, the ED50 under setting [2] was found to be 9 mg/kg.
As for `O=C(O)c1cc2c3ccccc3[nH]c(=O)n2n1` [Example 13, 5,6-Dihydro-5-oxopyrazolo-[1,5-c]quinazoline-2-carboxylic acid], under “PCA, IP, 75 mpk”, the % Inhibition (usually how much of the control response was suppressed) came to 36%.
Turning to `CCOC(=O)c1nn2c(=O)[nH]c3ccccc3c2c1C` [Example 15], where the note is “PCA, IP, 150 mpk”, the “% Inhibition” value is on record as 63%. The ED50 (PCA, IP) came out at 58 mg/kg.
`CCOC(=O)c1cc2c3cc(OC)ccc3[nH]c(=O)n2n1` [Example 17]: the “% Inhibition” value (PCA, IP, 25 mpk) came to 90%.
As to `COC(=O)c1nn2c(=O)[nH]c3ccccc3c2c1C(=O)OC` [Example 11], under “PCA, IP, 150 mpk”, the “% Inhibition” value is reported as 21%.
Same read-out and setting: with `O=C(c1ccccc1)c1cc2c3ccccc3[nH]c(=O)n2n1` [Example 16] the figure was 37%; with `CC(=O)c1cc2c3ccccc3n(C)c(=O)n2n1` [Example 14], 32%.
Consider `CC(=O)c1cc2c3ccccc3[nH]c(=O)n2n1` [Example 12], for which the “% Inhibition” value (PCA, IP, 75 mpk) is on record as 32%.
Take `O=c1[nH]c2ccccc2c2ccnn12` [Pyrazolo[1,5-c]quinazoline-5(6H)-one, Pyrazolo[1,5-c]quinazolin-5(6H)-one]: the anti-asthma activity result is given as “has anti-asthma activity”. Under setting [1], this compound displayed a Maximum % inhibition of 59%.
On to `CCOC(=O)c1c(-c2ccccc2)nn2c(=O)[nH]c3ccccc3c12` [5,6-Dihydro-5-oxo-2-phenylpyrazolo[1,5-c]quinazoline-1-carboxylic acid, ethyl ester], for which the anti-asthma activity result is reported as “has anti-asthma activity”. Further, the Maximum % inhibition under setting [1] amounted to 42%.
Consider `CCOC(=O)c1cc2c3ccccc3[nH]c(=O)n2n1` [5,6-Dihydro-5-oxopyrazolo[1,5-c]quinazoline-2-carboxylic acid, ethyl ester], for which the anti-asthma activity result is “has anti-asthma activity”. The Maximum % inhibition (IP, 10 mg/kg, rats dosed ten min. prior to challenge) stood at 94%. The compound further returned a Maximum % inhibition (PO, 9 mg/kg, rats dosed ten min. prior to challenge) of 95%. In addition, under setting [2], the ED50 worked out at 2 mg/kg. Further, under “PO (orally), rats dosed ten min. prior to challenge”, the ED50 was found to be 3 mg/kg.
